These are literature values, as cited in US20250131989A1, “LABORATORY CALIBRATION SYSTEM OF MATERIALS FOR USAGE IN SIMULATIONS AND FORECAST OF DISSOLUTION, DISINTEGRATION, DIFFUSION, COMPRESSION, DEFORMATION AND OTHER RELATED MATERIAL PROPERTIES AND CORRESPONDING METHOD THEREOF” (CINCAP GMBH, priority 2021, published 2025).

The conditions of series [1]: key 7 (solubility vs. pH data point); example JSON database record, producer CINCAP.
The conditions of series [2]: example JSON database record, producer CINCAP.

As for `Cn1c(=O)c2[nH]cnc2n(C)c1=O` [Theophilline], the solubility entry in series [1] is ““solubility”:[{“key”:7, “value”:7.36}],”. The diffusivity result in series [2] is reported as ““diffusivity”:6.16e−10,”.
